Laboratory results: PMC6303390, “Nucleotide-dependent DNA gripping and an end-clamp mechanism regulate the bacteriophage T4 viral packaging motor” (Nature Communications, 2018)

Experiments:
[1] = target: T1, bacteriophage T4 packaging motor (gp17 on emptied T4 heads) (Tequatrovirus T4, UniProt P17312); experiment: optical tweezers single-DNA packaging assay; format: biochemical; conditions: ATP-driven DNA translocation; 50 mM Tris-HCl pH 7.5, 5 mM MgCl2, 80 mM NaCl
T1 construct: gene 17; N-terminally His-tagged recombinant gp17 from E. coli, assembled as pentamer on emptied heads (10am13am mutant phage) that carry the gp20 portal; with Portal protein
T1 sequence (P17312 whole entry): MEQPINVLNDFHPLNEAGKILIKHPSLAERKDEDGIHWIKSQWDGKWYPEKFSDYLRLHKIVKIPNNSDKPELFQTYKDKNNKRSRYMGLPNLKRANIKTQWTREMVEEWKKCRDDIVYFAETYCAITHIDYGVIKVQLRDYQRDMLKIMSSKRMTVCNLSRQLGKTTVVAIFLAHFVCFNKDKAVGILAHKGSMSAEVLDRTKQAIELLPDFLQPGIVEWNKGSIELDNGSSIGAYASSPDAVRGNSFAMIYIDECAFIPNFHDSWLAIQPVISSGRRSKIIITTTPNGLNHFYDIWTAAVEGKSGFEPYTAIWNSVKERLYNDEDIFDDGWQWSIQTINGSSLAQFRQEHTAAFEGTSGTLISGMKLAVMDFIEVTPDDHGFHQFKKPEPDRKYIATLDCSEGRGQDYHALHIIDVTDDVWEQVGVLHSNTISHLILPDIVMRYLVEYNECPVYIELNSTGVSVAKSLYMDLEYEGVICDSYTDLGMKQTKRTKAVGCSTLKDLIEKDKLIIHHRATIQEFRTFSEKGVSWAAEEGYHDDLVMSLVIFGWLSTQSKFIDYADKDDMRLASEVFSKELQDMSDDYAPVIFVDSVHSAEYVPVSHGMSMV

[2] = target: T1, bacteriophage T4 packaging motor (gp17 on emptied T4 heads); experiment: optical tweezers single-DNA grip/slip assay with solution exchange; format: binding; conditions: 0.5 mM ADP, 5 pN force; 50 mM Tris-HCl pH 7.5, 5 mM MgCl2, 80 mM NaCl

| SMILES | optical tweezers single-DNA packaging assay [1] | optical tweezers single-DNA grip/slip assay with solution exchange [2] |
| --- | --- | --- |
| Nc1ncnc2c1ncn2[C@@H]1O[C@H](COP(=O)(O)OP(=O)(O)OP(=O)(O)O)[C@@H](O)[C@H]1O [ATP] | In each case the motor restarts when the complex is moved back into ATP | – |
| Nc1ncnc2c1ncn2[C@@H]1O[C@H](COP(=O)(O)OP(=O)(O)O)[C@@H](O)[C@H]1O [ADP] | – | when ADP is used highly intermittent gripping is observed |
